What all share (experiment): Growth inhibition GI50 in vitro (CCK8/MTT, 72 h)
In assay [1] the test system is A549 (EGFR WT). In kind it is cell-based, human. The note with it: Homo sapiens, A549.
The test system of assay [2] is N87 (HER2 Amp). It counts as cell-based, human. The conditions noted are these: Homo sapiens.
In assay [3] the test system is H292 (EGFR WT). It counts as cell-based. The note with it: Homo sapiens, NCI-H292; Table 15; 1000 nM to 0.03 nM serial dilution; read-out: GI50 H292 (EGFR WT). An excerpt:
EGFR wild type cell lines: human epidermal cancer cell line A431 (EGFR WT, amplification and high expression, from Shanghai Cell Bank of Chinese Academy of Sciences and ATCC), NSCLC cell lines NCI-H460 (EGFR WT, Kras G61H and PI3KCA E545K mutants, ATCC) and NCI-H1299 (EGFR WT, ATCC), melanoma cell line A375 (EGFR WT and BRAF V600E mutant, from Shanghai Cell Bank of Chinese Academy of Sciences, ATCC), human lung cancer cell line NCI-H292 (EGFR WT, from human lung mucoepidermoid carcinoma/lymphatic metastasis, purchased from Shanghai Cell Bank of Chinese Academy of Sciences) were cultured with 1×RPMI1640 complete medium which was supplement with 10% FBS. NSCLC cell line A549 (EGFR WT and Kras G12S mutant, from Shanghai Cell Bank of Chinese Academy of Sciences) was cultured with 1×Ham'S F12K complete medium which was supplement with 10% FBS, 1% double-antibiotics and 2 mM glutamine.
(§1) The suspension cells were collected by centrifugation. The supernatant was discard and the cell pellet was resuspended and counted. Different cell concentrations (5˜10×10^4 cells/mL) were prepared according to the growth cycle of each cell line and then seeded on a 96-well plate (Corning), 100 μL/well. The cells were incubated over night at 37° C., 5% CO2. The compounds were added to the cells on the second day with 2 wells in parallel. The final concentration of organic solvent shall not exceed 1%. The cells were continually incubated for 72 h, and then subjected to MTT assay.
(§2) The present compounds and the reference compounds were dissolved with DMSO (Sigma), respectively. […] The storage concentration of compounds was 10 mM and kept at −20° C. They were diluted by 2 times or 10 times with serial dilution before using.
(§3) Dojindo CCK8 reagent kit was used as MTT assay. […] FC meter was used as microplate reader.
(§4) Adherent cell culture medium was discard and immediately replaced with fresh prepared medium which contains 10% CCK8 reagent (100 μL/well). For the suspension cells, CCK8 was directly added to 10% of the final concentration. The cells were continually incubated for 1˜4 h. When the color of control wells turned to dark yellow, the absorption value was measured at OD450 nm. The cell growth rate was calculated according to the following formula: cell growth rate (%)=100*(T−T0)/(C−T0), T=optical density of drug treatment cell well—optical density of blank control well; T0=optical density of cell well before drug treatment—optical density of blank control well; C=optical density of cell well of solvent control group—optical density of blank control well. […] The experiment was independently repeated 1˜3 times, and subject to biological statistical analysis.

The subject of assay [4] is SNU1040 (HER2 V777M positive). It counts as cell-based. The conditions noted are these: Homo sapiens; Table 16; 1000 nM to 0.03 nM serial dilution; read-out: GI50 SNU-1040 (HER2 V777M). The method, then:
(§5) Human lung adenocarcinoma cell line Calu-3 (ATCC) was cultured with 1×MEM complete medium (10% FBS, 1% double-antibiotics, 1% NEAA (Gibco), 2 mM glutamine and 1 mM of sodium pyruvate). Human breast cancer cell line SK-BR-3 was cultured with McCOY'S5A complete medium (10% FBS). Human colon cancer cell line SNU1040 (HER2 V777M positive) (ATCC) and human bronchoalveolar adenocarcinoma cell line NCI-H1781 (expressing HER2 exon 20 G776VC mutation) (ATCC) were cultured with 1×RPMI1640 complete medium (10% FBS), respectively.
as §1, with “Adherent cells were digested with 0.25% pancreatin-EDTA (Gibco). The suspension” for “The suspension”
as §2, §3
(§6) Adherent cell culture medium was discard and immediately replaced with fresh prepared medium which contains 10% CCK8 reagent (100 μL/well). For the suspension cells, CCK8 was directly added to 10% of the final concentration. The cells were continually incubated for 1˜4 h. When the color of control wells turned to dark yellow, the absorption value was measured at OD450 nm. The cell growth rate was calculated according to the following formula: cell growth rate (%)=100*(T−T0)/(C−T0), T=optical density of drug treatment cell well—optical density of blank control well; T0=optical density of cell well before drug treatment—optical density of blank control well; C=optical density of cell well of solvent control group—optical density of blank control well. The concentration value of 50% inhibition of cell growth (GI50) was calculated. The experiment was independently repeated 1˜3 times, and subject to biological statistical analysis.
(§7) Furthermore, the present compounds (99, 136, 205, 211, 212, 213, 216, 229, 230, 231, 232, 233 and 236) were selected to carry out growth inhibition test for HER2/ERBB2 gene amplified or high expressed or mutant tumor cells. Afatinib and AZD9291 were used for references as second- and third-generation inhibitors of EGFR.
(§8) Each compound started at 1000 nM as an initial concentration and was diluted by 2 times with serial dilution to 0.03 nM. The GI50 value of each compound was calculated according to Test Example 1.3.

Assay [5] has as its system NCI-H1781 (HER2 exon 20 G776VC mutation). In kind it is cell-based. The conditions noted are these: Homo sapiens, NCI-H1781; Table 16; 1000 nM to 0.03 nM serial dilution; read-out: GI50 H1781 (HER2 G776VC). The method, then:
as §5
as §1, with “Adherent cells were digested with 0.25% pancreatin-EDTA (Gibco). The suspension” for “The suspension”
as §2, §3, §6, §7, §8

Assay [6] has as its system PC-9 (EGFR dE746-A750). In kind it is cell-based, human. The note with it: Homo sapiens.
Assay [7] concerns H1975 (EGFR L858R/T790M). It counts as cell-based, human. The note with it: Homo sapiens, NCI-H1975.
Assay [8] relates to SW48 (EGFR G719S positive). In kind it is cell-based. The conditions noted are these: Homo sapiens, SW48; Table 15; 1000 nM to 0.03 nM serial dilution; read-out: GI50 SW48 (EGFR G719S). The method, then:
PC-9ER is an acquired Erlotinib resistance cell line of PC-9 cells developed by the investor. […] The four cell lines above were cultured with 1×RPMI1640 complete medium (supplement with 10% FBS). Human colon cancer cell line SW48 (EGFR G719S positive, ATCC). was cultured with L15 complete medium (10% FB S).
as §1, §2, §3, §4
Each compound started at 1000 nM as an initial concentration and was diluted by […] with serial dilution to 0.03 nM.

The subject of assay [9] is Calu-3 (Her2 amp). In kind it is cell-based. The conditions noted are these: Homo sapiens, Calu-3; Table 16; 1000 nM to 0.03 nM serial dilution; read-out: GI50 Calu3 (HER2 amp). The method, then:
as §5, §1, §2, §3, §4

[10] abbreviates: Table 13, 72 h, read-out: Range of GI50 A549 (EGFR WT).
Setting [11] is: Table 15, 1000 nM to 0.03 nM serial dilution, read-out: GI50 A549 (EGFR WT).
Setting [12] is: Table 13, 72 h, read-out: Range of GI50 N87 (HER2 Amp).
Setting [13] is: Table 16, 1000 nM to 0.03 nM serial dilution, read-out: GI50 N87 (HER2 amp).
[14] abbreviates: Table 13, 72 h, read-out: Range of GI50 PC-9 (EGFR dE746-A750).
Where [15] appears, read: Table 15, 1000 nM to 0.03 nM serial dilution, read-out: GI50 PC-9 (EGFR dE746-A750).
Setting [16] is: Table 13, 72 h, read-out: Range of GI50 H1975 (EGFR L858R/T790M).
[17] abbreviates: Table 15, 1000 nM to 0.03 nM serial dilution, read-out: GI50 H1975 (EGFR L858R/T790M).

Where two headings read alike, the source gives them in different places.

For the molecule `C=CC(=O)Nc1cc(Nc2cc(Nc3cc(C(F)(F)F)ccc3F)ncn2)c(OC)cc1N(C)CCN(C)C` [Compound 231, N-(5-(6-(2-fluoro-5-trifluoromethyl-phenylamino)-pyrimidin-4-yl-amino)-2-((2-dimethylamino-ethyl)-methyl-amino)-4-methoxyl-phenyl)-acrylamide], the GI50 in assay [1] (setting [10]) is above 1000 nM; in assay [1] (setting [11]), above 1000 nM; in assay [2] (setting [12]) it was below 10 nM; in [2] (setting [13]) it was 4.21 nM; in assay [3], above 1000 nM; in [4] it was 6.75 nM. Besides, the GI50 in [5] is 1.79 nM; in assay [6] (setting [14]) it was below 10 nM; in [6] (setting [15]), 0.19 nM; in [7] (setting [16]), 10 to 100 nM; in [7] (setting [17]), 19.5 nM; in assay [8], 3.13 nM. The GI50 in assay [9] came to 5.6 nM.

For `C=CC(=O)Nc1cc(Nc2cc(Nc3cc(OC)cc(C(F)(F)F)c3)ncn2)c(OC)cc1N(C)CCN(C)C` [Compound 232, N-(5-(6-(3-methoxyl-5-trifluoromethyl-phenylamino)-pyrimidin-4-yl-amino)-2-((2-dimethylamino-ethyl)-methyl-amino)-4-methoxyl-phenyl)-acrylamide], the GI50 is above 1000 nM in assay [1] (setting [10]); above 1000 nM in assay [1] (setting [11]); below 10 nM in assay [2] (setting [12]); 1.92 nM in assay [2] (setting [13]); above 1000 nM in assay [3]; 6.82 nM in [4]. Besides, the GI50 is 1.02 nM in assay [5]; below 10 nM in assay [6] (setting [14]); 2.43 nM in [6] (setting [15]); 10 to 100 nM in [7] (setting [16]); 16.9 nM in assay [7] (setting [17]); 4.87 nM in [8]. Besides, in assay [9], the GI50 turned out to be 2.49 nM.

Regarding `C=CC(=O)Nc1cc(Nc2cc(Nc3cc(C(F)(F)F)ccc3OC)ncn2)c(OC)cc1N(C)CCN(C)C` [Compound 233, N-(5-(6-(2-methoxyl-5-trifluoromethyl-phenylamino)-pyrimidin-4-yl-amino)-2-((2-dimethylamino-ethyl)-methyl-amino)-4-methoxyl-phenyl)-acrylamide], the GI50 was above 1000 nM in [1] (setting [10]); above 1000 nM in assay [1] (setting [11]); below 10 nM in assay [2] (setting [12]); 0.95 nM in [2] (setting [13]); above 1000 nM in [3]; 7.21 nM in [4]. Also, the GI50 in assay [5] is 0.87 nM; in assay [6] (setting [14]) it was below 10 nM; in assay [6] (setting [15]), 0.49 nM; in assay [7] (setting [16]) it was 10 to 100 nM; in assay [7] (setting [17]), 19.2 nM; in assay [8] it was 4.19 nM. Also, the GI50 in assay [9] was 0.98 nM.

Regarding `C=CC(=O)Nc1cc(Nc2cc(Nc3cc(F)cc(C(F)(F)F)c3)ncn2)c(OC)cc1N(C)CCN(C)C` [Compound 230, N-(5-(6-(5-fluoro-3-trifluoromethyl-phenylamino)-pyrimidin-4-yl-amino)-2-((2-dimethylamino-ethyl)-methyl-amino)-4-methoxyl-phenyl)-acrylamide], the GI50 is above 1000 nM in [1] (setting [10]); above 1000 nM in assay [1] (setting [11]); below 10 nM in assay [2] (setting [12]); 3.9 nM in assay [2] (setting [13]); above 1000 nM in assay [3]; 13.2 nM in assay [4]. The GI50 in assay [5] was 1.91 nM; in assay [6] (setting [14]), below 10 nM; in assay [6] (setting [15]), 0.37 nM; in [7] (setting [16]), 10 to 100 nM; in assay [7] (setting [17]) it was 19 nM; in assay [8], 5.87 nM. In assay [9], the GI50 came out at 2.67 nM.

In the case of `C=CC(=O)Nc1cc(Nc2cc(Nc3cccc(C#N)c3)ncn2)c(OC)cc1N(C)CCN(C)C` [Compound 229, N-(5-(6-(3-cyano-phenylamino)-pyrimidin-4-yl-amino)-2-((2-dimethylamino-ethyl)-methyl-amino)-4-methoxyl-phenyl)-acrylamide], the GI50 in [1] (setting [10]) was above 1000 nM; in [1] (setting [11]), above 1000 nM; in assay [2] (setting [12]), below 10 nM; in assay [2] (setting [13]) it was 1.95 nM; in [3], above 1000 nM; in [4] it was 10.3 nM. Besides, the GI50 in assay [5] is 0.95 nM; in assay [6] (setting [14]) it was below 10 nM; in assay [6] (setting [15]), 0.98 nM; in [7] (setting [16]) it was 10 to 100 nM; in assay [7] (setting [17]), 19.1 nM; in assay [8] it was 4.92 nM. For the same molecule, in assay [9], the GI50 worked out at 1.26 nM.
